# Results from US12582653B2, “Method for treating idiopathic pulmonary fibrosis” (BEIJING TIDE PHARMACEUTICAL CO., LTD., priority 2020, dated 2026).
# How the values were obtained:
# [1] = test system: BLM-induced mouse IPF model; test: BLM-induced mouse IPF model (Example 2); type: in vivo; details: for up-regulation of TIMP-1 mRNA expression in the lung tissue induced by bleomycin / up-regulation of COL1A1 mRNA expression in the lung tissue induced by bleomycin: real-time fluorescent quantitative PCR, β-actin reference; for up-regulation of TIMP-1 mRNA expression in the lung tissue induced by bleomycin: FIG. 5A; for up-regulation of COL1A1 mRNA expression in the lung tissue induced by bleomycin: FIG. 5B
# Protocol: 60 C57BL/6 mice (purchased from SLAC, Shanghai) were adaptively fed for 1 week, and 50 animals were randomly selected. 3 mg/kg of bleomycin (BLM, purchased from SIGMA, #SIGMA-P9564) was administered through intratracheal (IT) injection to the mice to establish the IPF animal model. The remaining 10 animals were injected with physiological saline at a volume same as the injected BLM, and served as the normal group (N=10). The day of the injection of bleomycin was set as day 0 (DO); on day 6, the animals were randomly divided into 4 groups according to body weight: vehicle group (N=14), compound 007 administration group (N=12), compound 128 administration group (N=12), and positive control pirfenidone (purchased from SIGMA, #SIGMA-P2116) administration group (N=12).
# The animals in each group were administered on days 8-21: the animals in the normal group and vehicle group were intragastrically administered with vehicle 1 (vehicle 1: 20% PEG 400+5% Tween 80+75% ddH2O), the animals in the compound 007 administration group were intragastrically administered with compound 007 (formulated with vehicle 1), the animals in the compound 128 administration group were intragastrically administered with compound 128 (formulated with vehicle 1), and the animals in the Pirfenidone administration group were intragastrically administered with pirfenidone (vehicle 2: 0.2% Methyl cellulose+0.5% Tween 80+99.3% ddH2O).
# The body weight and its changes were recorded daily (the calculation formula for the body weight change on day 21: Body weight change on day 21=Body weight on day 21—Body weight on day 0), and the results are shown in FIGS. 1A and 1B.
# The animals were euthanized 2 hours after the administration on day 21, and the alveolar lavage fluid was collected for white blood cell (WBC) counting. According to FIG. 3, there was no significant difference in the total white blood cell count in the alveolar lavage fluid of the animals in each administration group.
# The left lung of the animals was fixed for histopathological examination, and the Ashcroft score of lung injury was performed by Masson Trichome staining. The scoring standard is as reported in Ashcroft T et al., Journal of clinical pathology, 1988. After 100 times magnification, each successive field was scored (ranging from 0 (normal lung)) to 8 (total fibrous obliteration within the field).
# The mRNA levels of lung tissue fibrosis-associated protein collagen 1A1 (COL1A1) and tissue inhibitor of metal matrix protein 1 (TIMP-1) in the lung tissue after the administration was detected by a real-time fluorescent quantitative PCR method. Specifically, the lung tissue fragments were transferred to a centrifuge tube containing 1 mL of TRIzol reagent (Invitrogen, catalog No. 15596018). The lung tissue was ground at low temperature by a tissue grinder. Total RNA in cells was extracted. TransScript All-in-One First-Strand cDNA Synthesis SuperMix for qPCR (One-Step gDNA Removal) (TransGen, catalog No. AT341-02) kit was used for reverse transcription synthesis of cDNA. The mRNA expression changes of COL1A1 and TIMP-1 in the lung tissue was detected by a fluorescence quantitative PCR method.
# In the real-time fluorescent quantitative PCR method, β-actin gene was used as the internal reference gene to normalize the data. All primer sequences were from the PrimerBank website, ID No.: 34328108a1 (COL1A1 primer), 6755795a1 (TIMP-1 primer) and 6671509a1 (β-actin primer). All of the 3 primers were synthesized by Invitrogen.
# [2] = test system: BLM-induced mouse IPF model; test: BLM-induced mouse IPF model, different doses (Example 3); type: in vivo, C57BL/6J mice
# Protocol: After adaptive feeding, C57BL/6J mice were randomly divided into 2 groups according to body weight: in one group, 15 animals were administered with 50 μL physiological saline through intratracheal injection; and in another group, 90 animals were administered with 50 μL bleomycin (2.5 mg/kg) through intratracheal injection to establish the IPF model. On Day 7 after the establishment of the animal model, animals were randomly grouped according to the weight change (the difference between the weight on Day 7 after the establishment of the model and the day when the model was established). Drugs were administered for 14 consecutive days from the eighth day after the establishment of the animal model. […] The bronchoalveolar lavage fluid (BALF) was collected for white blood cell count. The left lung of the animals was fixed for preparing histopathological slide. H&E and Masson Trichome staining were performed to score the degree of lung injury and fibrosis. Pulmonary fibrosis scoring standard was according to “Standardized quantification of pulmonary fibrosis in histological samples”; lung tissue injury grade score is 0-16, mainly evaluated from four aspects including inflammatory cell infiltration (0-4), hemorrhage (0-4), interstitial and alveolar edema (0-4) and alveolar septum thickness (0-4). A higher score indicate a higher degree of lung tissue injury.
Structure (SMILES),"survival rate of the animals at the end of the test ([1]; 100 mg/kg orally once a day, 14 days (days 8-21), FIG. 2)","collagen accumulation in lung and degree of lung fibrosis (Ashcroft score, Masson Trichome staining) ([1]; 100 mg/kg orally once a day, 14 days, FIGS. 4A and 4B)","therapeutic effect on lung fibrosis compared with pirfenidone and compound 128 ([1]; 007 and 128 at 100 mg/kg once a day, pirfenidone 90 mg/kg twice a day, FIGS. 4A and 4B)",up-regulation of TIMP-1 mRNA expression in the lung tissue induced by bleomycin [1],up-regulation of COL1A1 mRNA expression in the lung tissue induced by bleomycin [1],"therapeutic effects compared with pirfenidone and nintedanib ([2]; 30 mpk orally once a day, pirfenidone 90 mg/kg twice a day, nintedanib 30 mg/kg once a day)","therapeutic effects compared with pirfenidone and nintedanib ([2]; 100 mpk orally once a day, pirfenidone 90 mg/kg twice a day, nintedanib 30 mg/kg once a day)","lung injury and fibrosis degree improvements compared with pirfenidone and nintedanib ([2]; 300 mpk orally once a day, pirfenidone 90 mg/kg twice a day, nintedanib 30 mg/kg once a day)","lung injury (H&E score 0-16) ([2]; compared with the model group, FIGS. 7A and 7B)","fibrosis degree (Masson Trichome score) ([2]; compared with the model group, FIGS. 8A and 8B)","infiltration of white blood cells in the lung (BALF white blood cell count) ([2]; compared with the model group, orally once a day, 14 days, FIG. 6)"
Cn1c(C(=O)N2CC(F)(F)C2)cc2ccc(-c3nccc(Nc4ccc(-c5cn[nH]c5)cc4)n3)cc21 [Compound 007],significantly higher,significantly reduced,significantly better than that of pirfenidone and compound 128,significantly inhibited,significantly inhibited,equivalent to those of pirfenidone and nintedanib,equivalent to those of pirfenidone and nintedanib,superior to pirfenidone and nintedanib,significantly improved,significantly improved,significantly reduce
"Cc1ccc(=O)n(-c2ccccc2)c1 [Pirfenidone, reference compound]",–,–,–,moderate inhibitory effect without statistic difference,significantly inhibited,–,–,–,–,–,–
